Assay: Cannabinoid stability in solution (time course incubation)
Assay type: physicochemical
Conditions: room temperature, shielded from light
Experimental: Rather, levels increased slightly in all treatments. The absence of any residual UGTs were cross-check and confirmed as the samples were purified by SPE, washed and eluted in 30% and 65%-100% ethanol, respectively.
Materials and Methods Example 19: Cannabinoid Stability in Solution.
The present inventors generated a stock solution of the CBD/CBDA+glycosides mixture in water which was further diluted 10× in all treatment solutions. A 10 mL starting volume was used for all treatments, and all treatments were prepared in triplicate. […] Each sample was incubated at room temperature. Samples were stored in 15 mL polypropylene centrifuge tubes. All samples were shielded from light—tubes were wrapped in aluminum foil. Each sample was prepared in triplicate in the following buffers: water only; pH=3; pH=4; pH=7; pH=8; water only+10 mM ascorbic acid; pH=3+10 mM ascorbic acid; pH=4+10 mM ascorbic acid; pH=7+10 mM ascorbic acid; and pH=8+10 mM ascorbic acid.

[1] = Water + AA (10 mM ascorbic acid)
[2] = pH = 3 + AA (10 mM ascorbic acid)
[3] = pH = 4 + AA (10 mM ascorbic acid)
[4] = pH = 7 + AA (10 mM ascorbic acid)
[5] = pH = 8 + AA (10 mM ascorbic acid)

C=C(C)[C@@H]1CCC(C)=C[C@H]1c1c(O)cc(CCCCC)cc1O [CBD, cannabidiol, reference compound]
Day 0 concentration in solution [1]: 561.85 ± 86.83 µg/mL | Day 0 concentration in solution (Water): 399.81 ± 111.06 µg/mL | Day 0 concentration in solution [2]: 565.75 ± 40.96 µg/mL | Day 0 concentration in solution (pH = 3): 568.71 ± 115.90 µg/mL | Day 0 concentration in solution [3]: 524.40 ± 34.95 µg/mL | Day 0 concentration in solution (pH = 4): 505.97 ± 5.10 µg/mL | Day 0 concentration in solution [4]: 500.03 ± 21.45 µg/mL | Day 0 concentration in solution (pH = 7): 528.04 ± 91.17 µg/mL | Day 0 concentration in solution [5]: 1136.36 ± 996.36 µg/mL | Day 0 concentration in solution (pH = 8): 513.35 ± 39.23 µg/mL | Day 1 concentration in solution [1]: 428.63 ± 198.77 µg/mL | Day 1 concentration in solution (Water): 629.00 ± 383.79 µg/mL | Day 1 concentration in solution [2]: 650.49 ± 12.10 µg/mL | Day 1 concentration in solution (pH = 3): 713.93 ± 41.47 µg/mL | Day 1 concentration in solution [3]: 406.17 ± 210.69 µg/mL | Day 1 concentration in solution (pH = 4): 380.77 ± 233.10 µg/mL | Day 1 concentration in solution [4]: 505.88 ± 276.58 µg/mL | Day 1 concentration in solution (pH = 7): 880.54 ± 5.87 µg/mL | Day 1 concentration in solution [5]: 291.15 ± 78.65 µg/mL | Day 1 concentration in solution (pH = 8): 747.61 ± 101.87 µg/mL | Day 4 concentration in solution [1]: 182.66 ± 25.03 µg/mL | Day 4 concentration in solution (Water): 432.54 ± 251.39 µg/mL | Day 4 concentration in solution [2]: 232.39 ± 113.88 µg/mL | Day 4 concentration in solution (pH = 3): 191.94 ± 55.68 µg/mL | Day 4 concentration in solution [3]: 305.20 ± 97.35 µg/mL | Day 4 concentration in solution (pH = 4): 278.33 ± 85.33 µg/mL | Day 4 concentration in solution [4]: 398.16 ± 391.86 µg/mL | Day 4 concentration in solution (pH = 7): 539.55 ± 260.69 µg/mL | Day 4 concentration in solution [5]: 173.43 ± 17.53 µg/mL | Day 4 concentration in solution (pH = 8): 560.90 ± 69.27 µg/mL | Day 5 concentration in solution [1]: 448.64 ± 33.51 µg/mL | Day 5 concentration in solution (Water): 466.09 ± 130.53 µg/mL | Day 5 concentration in solution [2]: 320.48 ± 92.87 µg/mL | Day 5 concentration in solution (pH = 3): 330.79 ± 138.28 µg/mL | Day 5 concentration in solution [3]: 366.65 ± 92.35 µg/mL | Day 5 concentration in solution (pH = 4): 510.50 ± 76.06 µg/mL | Day 5 concentration in solution [4]: 353.25 ± 135.11 µg/mL | Day 5 concentration in solution (pH = 7): 593.92 ± 6.30 µg/mL | Day 5 concentration in solution [5]: 287.24 ± 39.56 µg/mL | Day 5 concentration in solution (pH = 8): 498.21 ± 92.88 µg/mL | Day 6 concentration in solution [1]: 957.17 ± 315.70 µg/mL | Day 6 concentration in solution (Water): 179.13 ± 17.88 µg/mL | Day 6 concentration in solution [2]: 801.14 ± 230.88 µg/mL | Day 6 concentration in solution (pH = 3): 607.98 ± 416.07 µg/mL | Day 6 concentration in solution [3]: 777.26 ± 56.02 µg/mL | Day 6 concentration in solution (pH = 4): 897.52 ± 65.92 µg/mL | Day 6 concentration in solution [4]: 828.02 ± 269.38 µg/mL | Day 6 concentration in solution (pH = 7): 1115.01 ± 169.64 µg/mL | Day 6 concentration in solution [5]: 847.26 ± 88.56 µg/mL | Day 6 concentration in solution (pH = 8): 911.61 ± 84.17 µg/mL | Day 7 concentration in solution [1]: 592.44 ± 87.97 µg/mL | Day 7 concentration in solution (Water): 680.13 ± 229.24 µg/mL | Day 7 concentration in solution [2]: 464.35 ± 105.43 µg/mL | Day 7 concentration in solution (pH = 3): 563.80 ± 65.50 µg/mL | Day 7 concentration in solution [3]: 557.34 ± 60.39 µg/mL | Day 7 concentration in solution (pH = 4): 641.86 ± 33.49 µg/mL | Day 7 concentration in solution [4]: 549.93 ± 39.69 µg/mL | Day 7 concentration in solution (pH = 7): 544.28 ± 57.97 µg/mL | Day 7 concentration in solution [5]: 630.99 ± 2.44 µg/mL | Day 7 concentration in solution (pH = 8): 580.54 ± 94.41 µg/mL

From patent US11946059B2, “In vivo generation of water-soluble cannabinoids in plant cell suspension cultures” (Trait Biosciences Inc., priority 2017, dated 2024)
